Article PMC2954295 (Chemistry & Biology, 2010)

Tests used:
[1] = target: human HexB (Homo sapiens, UniProt P07686); assay: inhibition kinetics with pNP-GlcNAc substrate, Lineweaver-Burk; format: biochemical
[2] = target: T1, human OGA (O-GlcNAcase) (Homo sapiens, UniProt O60502); assay: continuous UV/Vis assay with pNP-GlcNAc substrate, recombinant enzyme; format: biochemical
T1 sequence (O60502 1-916): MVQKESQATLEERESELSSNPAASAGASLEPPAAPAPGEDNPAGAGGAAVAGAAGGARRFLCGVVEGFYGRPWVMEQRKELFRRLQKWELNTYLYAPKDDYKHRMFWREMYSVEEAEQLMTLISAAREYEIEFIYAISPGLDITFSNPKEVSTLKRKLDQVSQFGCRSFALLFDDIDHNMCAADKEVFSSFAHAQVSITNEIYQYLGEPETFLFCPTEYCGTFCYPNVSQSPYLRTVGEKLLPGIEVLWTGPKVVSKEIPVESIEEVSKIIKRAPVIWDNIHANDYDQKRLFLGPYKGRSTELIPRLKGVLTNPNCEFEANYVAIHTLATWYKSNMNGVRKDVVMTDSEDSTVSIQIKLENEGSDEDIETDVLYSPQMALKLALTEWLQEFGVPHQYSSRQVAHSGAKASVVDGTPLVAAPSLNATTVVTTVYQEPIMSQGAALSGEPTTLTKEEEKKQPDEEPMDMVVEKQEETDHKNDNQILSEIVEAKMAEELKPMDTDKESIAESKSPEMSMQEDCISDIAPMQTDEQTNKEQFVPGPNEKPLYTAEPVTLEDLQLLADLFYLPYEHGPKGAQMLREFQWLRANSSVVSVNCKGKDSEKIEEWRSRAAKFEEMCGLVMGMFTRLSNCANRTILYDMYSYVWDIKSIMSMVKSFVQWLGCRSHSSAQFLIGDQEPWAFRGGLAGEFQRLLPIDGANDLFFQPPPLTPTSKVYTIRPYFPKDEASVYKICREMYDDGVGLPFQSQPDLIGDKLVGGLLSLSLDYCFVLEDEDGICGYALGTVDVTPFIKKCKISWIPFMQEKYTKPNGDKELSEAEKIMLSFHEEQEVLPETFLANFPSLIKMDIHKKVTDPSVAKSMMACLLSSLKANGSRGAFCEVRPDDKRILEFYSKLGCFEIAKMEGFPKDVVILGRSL

Sequence of human HexB (P07686 122-311): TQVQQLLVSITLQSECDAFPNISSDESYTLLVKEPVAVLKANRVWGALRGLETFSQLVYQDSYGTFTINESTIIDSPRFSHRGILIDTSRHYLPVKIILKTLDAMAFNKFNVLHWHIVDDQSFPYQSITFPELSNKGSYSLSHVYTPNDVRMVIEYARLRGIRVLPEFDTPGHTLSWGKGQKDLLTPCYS
Sequence of human HexB (P07686 315-556): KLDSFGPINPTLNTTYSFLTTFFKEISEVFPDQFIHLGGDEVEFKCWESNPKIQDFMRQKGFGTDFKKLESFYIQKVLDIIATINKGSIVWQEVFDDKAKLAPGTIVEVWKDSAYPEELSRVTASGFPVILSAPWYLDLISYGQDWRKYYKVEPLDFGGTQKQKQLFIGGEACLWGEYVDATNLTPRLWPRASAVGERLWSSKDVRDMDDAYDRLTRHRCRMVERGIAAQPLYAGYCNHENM

## CC(=O)N[C@H]1CN2CC[C@H](O)[C@@H]2[C@@H](O)[C@@H]1O [6-Ac-Cas]
[1]
  Ki: 250 nM
[2]
  Ki: 300 nM
